Data taken from ChEMBL document CHEMBL5500378, “Discovery of 4-benzylpiperazinequinoline BChE inhibitor that suppresses neuroinflammation for the treatment of Alzheimer's disease” (Eur J Med Chem, 2024).
Active and inactive are the calls of the source. The rule behind the calls is not given here.

Experiments:
[1] = system: BV-2; test: Anti-inflammatory activity against mouse BV-2 cells assessed as decrease in LPS-induced IL-6 level at 2 to 6 uM preincubated for 1 hr followed by LPS addition and incubated overnight by ELISA; type: functional, cell-based; details: dose 2-6 µM
[2] = Neurotoxicity against rat PC12 cells by MTT assay; type: toxicity, cell-based; details: pc-12
[3] = AUC (0 to infinity) in Sprague-Dawley rat at 10 mg/kg, iv measured for 2880 mins by LC-MS/MS analysis; type: ADME, organism-based; details: in vivo
[4] = system: BV-2; test: Anti-inflammatory activity against mouse BV-2 cells assessed as decrease in LPS-induced IFN-gamma level at 2 to 6 uM preincubated for 1 hr followed by LPS addition and incubated overnight by ELISA; type: functional, cell-based; details: dose 2-6 µM
[5] = system: Mus musculus; test: Anti-inflammatory activity in ICR mouse model assessed as reduction in serum TNF-alpha level at 10 mg/kg, IG pretreated for 10 days followed by LPS treatment for 4 days by ELISA; type: functional, organism-based; details: time 14.0 day
[6] = system: BV-2; test: Inhibition of ROS production in Amyloid beta(1 to 42)-induced neuronal damage in mouse BV-2 cells assessed as decrease in green fluorescence intensity at 5 uM by microscopic analysis; type: functional, cell-based
[7] = Half life in Sprague-Dawley rat at 10 mg/kg, IG measured for 2880 mins by LC-MS/MS analysis; type: ADME, organism-based; details: in vivo, po
[8] = target: Acetylcholinesterase (Electrophorus electricus) (UniProt O42275); test: Inhibition of electric eel AChE using ATC as substrate at 10 uM incubated for 2 mins by Ellman's method relative to control
Sequence of Acetylcholinesterase (Electrophorus electricus) (O42275 24-633 limits assumed): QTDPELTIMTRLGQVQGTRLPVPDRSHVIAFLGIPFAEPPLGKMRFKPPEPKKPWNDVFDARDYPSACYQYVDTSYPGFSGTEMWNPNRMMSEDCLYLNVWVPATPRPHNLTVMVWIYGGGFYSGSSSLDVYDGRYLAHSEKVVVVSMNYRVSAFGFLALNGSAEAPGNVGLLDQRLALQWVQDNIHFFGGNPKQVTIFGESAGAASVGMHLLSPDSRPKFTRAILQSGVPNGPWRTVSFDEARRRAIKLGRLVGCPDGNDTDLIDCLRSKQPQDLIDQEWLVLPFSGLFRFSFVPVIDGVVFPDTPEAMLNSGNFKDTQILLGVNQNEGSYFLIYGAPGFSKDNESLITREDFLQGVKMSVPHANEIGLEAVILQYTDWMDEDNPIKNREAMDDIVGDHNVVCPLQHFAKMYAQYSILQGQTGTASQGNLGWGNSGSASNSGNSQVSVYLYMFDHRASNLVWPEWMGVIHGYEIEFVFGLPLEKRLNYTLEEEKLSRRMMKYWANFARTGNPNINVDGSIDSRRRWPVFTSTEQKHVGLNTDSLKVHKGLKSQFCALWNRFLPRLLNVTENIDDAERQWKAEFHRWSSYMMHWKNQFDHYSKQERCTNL

[9] = AUC (0 to t) in Sprague-Dawley rat at 10 mg/kg, IG measured for 2880 mins by LC-MS/MS analysis; type: ADME, organism-based; details: in vivo, po
[10] = system: BV-2; test: Anti-inflammatory activity against mouse BV-2 cells assessed as decrease in LPS-induced TNF-alpha level at 5 uM preincubated for 1 hr followed by LPS addition and incubated overnight by immunofluorescence based analysis; type: functional, cell-based
[11] = Half life in brain of ICR mouse at 10 mg/kg, IG measured at 10 to 240 mins by LC-MS/MS analysis; type: ADME, organism-based; details: po, time 10-240 min
[12] = system: Antioxidant response element; test: Induction of ARE in human HepG2-ARE-C8 cells incubated for 24 hrs by luciferase based assay; type: cell-based; details: HepG2-ARE-C8, 24 h
[13] = AUC (0 to t) in plasma of ICR mouse at 10 mg/kg, IG measured at 10 to 240 mins by LC-MS/MS analysis; type: ADME, organism-based; details: in vivo, po, time 10-240 min
[14] = system: PC-12; test: Neuroprotective activity against H2O2-induced neuronal damage in rat PC12 cells assessed as increase in cell viability at 20 uM pretreated for 1 hr followed by H2O2 addition measured after 24 hrs by MTT assay relative to control; type: functional; details: time 25 hrs
[15] = Tmax in Sprague-Dawley rat at 10 mg/kg, IG measured for 2880 mins by LC-MS/MS analysis; type: ADME, organism-based; details: in vivo, po
[16] = Toxicity in ICR mouse assessed as body weight change administered orally for 14 days consecutively; details: in vivo, po, 336 h, time 14 day
[17] = Drug concentration in brain of ICR mouse at 10 mg/kg, IG measured at about 22 mins by LC-MS/MS analysis; type: ADME, organism-based; details: po, read-out: Ct
[18] = Ratio of AUC in brain to plasma of ICR mouse at 10 mg/kg, IG measured at 10 to 240 mins by LC-MS/MS analysis; type: ADME, organism-based; details: po, time 10-240 min
[19] = system: BV-2; test: Inhibition of ROS production in LPS-induced mouse BV-2 cells assessed as decrease in green fluorescence intensity at 2.5 to 10 uM pretreated for 1 hr followed by LPS addition and incubated overnight by DCFH-DA staining based analysis; type: functional, cell-based; details: dose 2.5-10 µM
[20] = system: Mus musculus; test: Anti-inflammatory activity in ICR mouse model assessed as reduction in brain TNF-alpha level at 10 mg/kg, IG pretreated for 10 days followed by LPS treatment for 4 days by ELISA; type: functional, organism-based; details: time 14.0 day
[21] = target: Cholinesterase (Homo sapiens, UniProt P06276); test: Inhibition of human BChE using BTC as substrate incubated for 2 mins by Ellman's method
Sequence of Cholinesterase (Homo sapiens, UniProt P06276) (P06276 whole entry): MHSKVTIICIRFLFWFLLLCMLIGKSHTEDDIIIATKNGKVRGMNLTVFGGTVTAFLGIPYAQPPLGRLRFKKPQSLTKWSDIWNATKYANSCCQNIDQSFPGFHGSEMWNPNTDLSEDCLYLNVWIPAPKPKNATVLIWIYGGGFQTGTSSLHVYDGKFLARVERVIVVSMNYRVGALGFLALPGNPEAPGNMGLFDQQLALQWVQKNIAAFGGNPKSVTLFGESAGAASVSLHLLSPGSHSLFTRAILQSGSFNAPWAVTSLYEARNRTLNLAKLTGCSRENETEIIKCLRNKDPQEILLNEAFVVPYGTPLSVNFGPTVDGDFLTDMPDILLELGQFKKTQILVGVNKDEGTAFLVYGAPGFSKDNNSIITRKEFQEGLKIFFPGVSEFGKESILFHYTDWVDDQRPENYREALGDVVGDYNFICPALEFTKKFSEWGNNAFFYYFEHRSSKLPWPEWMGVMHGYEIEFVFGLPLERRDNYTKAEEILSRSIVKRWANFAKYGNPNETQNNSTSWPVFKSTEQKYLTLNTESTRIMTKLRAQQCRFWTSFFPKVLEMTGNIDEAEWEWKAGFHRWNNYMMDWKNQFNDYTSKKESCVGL

[22] = system: SH-SY5Y; test: Neuroprotective activity against Amyloid beta(1 to 42)-induced neuronal damage in human SH-SY5Y cells assessed as increase in cell survival at 1 to 10 uM pretreated for 1 hr followed by Amyloid beta(1 to 42) addition measured after 24 hrs by MTT assay; type: functional, cell-based; details: dose 1-10 µM, time 25.0 hrs
[23] = system: Mus musculus; test: Anti-inflammatory activity in ICR mouse model assessed as shorter platform latency at 10 mg/kg, IG pretreated for 10 days followed by LPS treatment for 4 days by Moris water maze test; type: functional, organism-based; details: time 14.0 day
[24] = system: Mus musculus; test: Anti-inflammatory activity in ICR mouse model assessed as reduction in trajectory confusion at 10 mg/kg, IG pretreated for 10 days followed by LPS treatment for 4 days by Moris water maze test; type: functional, organism-based; details: time 14.0 day
[25] = system: Mus musculus; test: Neuroprotective activity in ICR mouse model of Amyloid beta(1 to 42)-induced cognitive impairment assessed as decrease in Amyloid beta expression in brain at 10 mg/kg, IG for 12 days by ELISA; type: functional, organism-based; details: time 12.0 day
[26] = Half life in Sprague-Dawley rat at 10 mg/kg, iv measured for 2880 mins by LC-MS/MS analysis; type: ADME, organism-based; details: in vivo, 48 h
[27] = system: Mus musculus; test: Improvement of cognition in ICR mouse model of Amyloid beta(1 to 42)-induced cognitive impairment at 10 mg/kg, IG for 12 days by Moris water maze test; type: functional, organism-based; details: time 12.0 day
[28] = Toxicity in ICR mouse assessed as abnormal behaviour administered orally; details: in vivo, po
[29] = target: Cholinesterase (Equus caballus, UniProt P81908); test: Inhibition of equine serum BChE using BTC as substrate incubated for 2 mins by Ellman's method; type: cell-free
Sequence of Cholinesterase (Equus caballus, UniProt P81908) (P81908 whole entry): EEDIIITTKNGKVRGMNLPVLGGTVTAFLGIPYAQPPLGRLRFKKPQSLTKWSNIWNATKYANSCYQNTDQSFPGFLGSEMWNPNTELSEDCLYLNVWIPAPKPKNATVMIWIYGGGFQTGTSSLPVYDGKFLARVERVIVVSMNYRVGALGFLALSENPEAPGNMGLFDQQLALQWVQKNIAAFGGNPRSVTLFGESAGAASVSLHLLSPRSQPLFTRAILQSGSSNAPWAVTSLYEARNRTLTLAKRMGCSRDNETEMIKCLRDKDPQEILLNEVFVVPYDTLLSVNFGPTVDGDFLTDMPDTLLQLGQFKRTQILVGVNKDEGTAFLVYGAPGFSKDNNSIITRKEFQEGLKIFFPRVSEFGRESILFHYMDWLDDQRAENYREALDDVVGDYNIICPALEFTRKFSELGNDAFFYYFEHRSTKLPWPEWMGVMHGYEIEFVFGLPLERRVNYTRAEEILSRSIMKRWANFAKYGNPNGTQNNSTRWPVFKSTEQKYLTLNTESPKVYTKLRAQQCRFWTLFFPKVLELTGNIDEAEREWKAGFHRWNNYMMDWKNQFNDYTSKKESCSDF

[30] = AUC (0 to infinity) in Sprague-Dawley rat at 10 mg/kg, IG measured for 2880 mins by LC-MS/MS analysis; type: ADME, organism-based; details: in vivo, po
[31] = Cmax in plasma of ICR mouse at 10 mg/kg, IG measured at 10 to 240 mins by LC-MS/MS analysis; type: ADME, organism-based; details: in vivo, po, time 10-240 min
[32] = Toxicity in ICR mouse model of Amyloid beta(1 to 42)-induced cognitive impairment assessed as body weight change at 10 mg/kg, IG for 12 days; type: organism-based; details: in vivo, po, 288 h, time 12 day
[33] = system: Mus musculus; test: Neuroprotective activity in ICR mouse model of Amyloid beta(1 to 42)-induced cognitive impairment assessed as increase in AChE expression in brain at 10 mg/kg, IG for 12 days by ELISA; type: functional, organism-based; details: time 12.0 day
[34] = Toxicity in ICR mouse assessed as animal death administered orally; details: in vivo, po
[35] = AUC (0 to t) in Sprague-Dawley rat at 10 mg/kg, iv measured for 2880 mins by LC-MS/MS analysis; type: ADME, organism-based; details: in vivo
[36] = Neurotoxicity against human SH-SY5Y cells by MTT assay; type: toxicity, cell-based
[37] = Half life in plasma of ICR mouse at 10 mg/kg, IG measured at 10 to 240 mins by LC-MS/MS analysis; type: ADME, organism-based; details: in vivo, po, time 10-240 min

CCCc1ccc(C(=O)Nc2cnc3ccccc3c2N2CCN(Cc3ccccc3)CC2)cc1
Activity [1]: Active | Activity [2]: Not Active | AUC(0-inf) [3]: 6070 ng·h/mL | Activity [4]: Active | Activity [5]: Active | inhibition [6]: Active | half-life [7]: 2.81 h | inhibition [8]: < 50% | AUC(0-t) at 48 h [9]: 5650 ng·h/mL | Activity [10]: Active | half-life [11]: 1.6 h | EC50 [12]: 23500 nM | AUCt [13]: 20051.76 ng·h/mL | Activity [14]: >80% | Tmax [15]: 1 h | Activity [16]: Non-Toxic | concentration at 22 min [17]: 554 ng/mL | Kp [18]: 1.96 | inhibition [19]: Active | Activity [20]: Active | IC50 [21]: 160 nM | Activity [22]: Active | Activity [23]: Active | Activity [24]: Active | Activity [25]: Active | t1/2 [26]: 5.047 h | Activity [27]: Active | Activity [28]: Non-Toxic | IC50 [29]: 60 nM | AUC(0-inf) [30]: 5650 ng·h/mL | Cmax [31]: 238.2 ng/mL | Activity [32]: Non-Toxic | Activity [33]: Active | Activity [34]: Non-Toxic | AUC(0-t) at 48 h [35]: 6070 ng·h/mL | Activity [36]: Not Active | t1/2 [37]: 1.09 h
